Measurements as given in PubChem BioAssay AID1996.
≈ marks a conversion by molar mass, not a printed value.

conditions: buffer; pH 7.4; 200.0 µM

Row | SMILES | solubility kinetic [µg/mL]
1 | CC1(C)C/C(=N\O)C(C(O)c2cccc([N+](=O)[O-])c2)C(C)(C)N1 (centres undefined) | 40.4 (≈ 126 µM)
2 | O=C(NCc1ccccc1Cl)NC(=O)c1csc([N+](=O)[O-])c1 | < 0.2
3 | O=C(NC1CC1)C(=O)c1c[nH]c2ccccc12 | > 34.2
4 | CC1=CCC2C(=O)N(c3ccc(OC(=O)c4ccco4)cc3)C(=O)C2C1 (centres undefined) | 21.5 (≈ 61.2 µM)
5 | CC(=O)Nc1ccc(SCc2csc(C)n2)cc1 | 35.4 (≈ 127 µM)
6 | O=Cc1cn(-c2ccccc2)nc1-c1ccncc1 | > 37.4
7 | COC(=O)c1ccccc1CC1SC(N)=NC1=O (centres undefined) | > 39.6
8 | Cn1c(=O)oc2cc(S(=O)(=O)Nc3ccc(F)cc3)ccc21 | 7.2 (≈ 22.3 µM)
9 | Cc1ccc2oc(C(=O)NCCC3CCCCO3)c(C)c2c1 (centres undefined) | 43.1 (≈ 143 µM)
10 | Cc1nc(C(=O)N2CCCC(Nc3ccc(C)c(C)c3)C2)cs1 (centres undefined) | > 49.4
11 | CCOC(=O)c1sc(NC(=O)c2ccc(=O)[nH]c2)nc1C | 7.3 (≈ 23.8 µM)
12 | CC(C)CCSc1nc2ccccc2[nH]1 | 10.7 (≈ 48.6 µM)
13 | O=C(NNC(=O)C12CC3CC(CC(C3)C1)C2)c1cccc([N+](=O)[O-])c1 | > 51.5
14 | O=C(O)c1cccc2c1C(=O)N(c1ccccc1)C2 | > 38
15 | COc1ccc2cc(S(=O)(=O)Nc3ccccn3)ccc2c1 | 10 (≈ 31.8 µM)
16 | COS(=O)(=O)[O-].Cn1c(Cc2ccccc2)[n+](C)c2ccccc21 | 50.7
17 | O=C(c1ccc(C(=O)N2CCN(c3ccccc3F)CC2)nc1)N1CCN(c2ccccc2F)CC1 | 3.5 (≈ 7.12 µM)
18 | Cn1cc(C(=O)OCC(=O)NC2(C#N)CCCC2)c2ccccc21 | > 48.8
19 | CCN(CC)C(=O)CSc1nc(-c2ccccc2)cc(=O)[nH]1 | > 47.6
20 | CCOC(=O)C1CCCN(CCC(=O)Nc2ccccc2C)C1.Cl (centres undefined) | > 53.2

Row | SMILES | solubility kinetic [µg/mL]
21 | COc1ccc(-c2csc(-c3[nH]cnc3N)n2)cc1 | 18.1 (≈ 66.5 µM)
22 | Cn1c(NCCO)nc2c1c(=O)n(Cc1ccc(F)cc1)c(=O)n2C | 50.6 (≈ 146 µM)
23 | O=C(Nc1ccccc1C(=O)Nc1ccccc1)c1ccccc1Br | 0.7 (≈ 1.77 µM)
24 | Clc1ccc(CN2CCN(c3ccccc3)CC2)cn1 | 21 (≈ 73 µM)
25 | CN(C)/C=N/S(=O)(=O)c1ccc(Cl)c(Cl)c1 | > 42.2
26 | Cc1nc2cc(NC(=O)N3CCCC3)ccc2n1C | 29.4 (≈ 114 µM)
27 | Cc1cccc2cc(CN(Cc3ccco3)C(=O)c3ccco3)c(=O)[nH]c12 | 0.8 (≈ 2.21 µM)
28 | CCOC(=O)c1sc(-c2ccc(C(F)(F)F)cc2)nc1O | > 47.6
29 | O=C(Nc1cccnc1)OC1CCCCC1 | > 33
30 | Cc1ccc(/C=C2\SC(=S)N(c3cccnc3)C2=O)cc1 | < 0.3
31 | CCCNC(=S)N1CCC(n2cnc3ccccc32)CC1 | > 45.4
32 | COc1ccc(C(=O)NCc2ccc3c(c2)OCO3)c(OC)c1 | > 47.3
33 | Cc1cc(C)n2c(SCC(=O)Nc3cccc(S(N)(=O)=O)c3)nnc2n1 | > 58.9
34 | CC(=O)N1CCN(c2ncnc3ccccc23)CC1 | > 38.4
35 | Cc1ccnc(NC(=O)c2cccc(OC(F)F)c2)n1 | 39.9 (≈ 143 µM)
36 | CCOC(=O)c1sc(=S)n(Cc2ccccc2)c1C | 3.4 (≈ 11.6 µM)
37 | Cc1ccccc1CN1CCc2cc([N+](=O)[O-])ccc21 | 1.9 (≈ 7.08 µM)
38 | CC1(C)Cc2nc3[nH]c(=S)[nH]c(=O)c3cc2CO1 | > 39.5
39 | Cc1ccc(NC(=S)N2CC(C)OC(C)C2)cc1C (centres undefined) | > 41.8
40 | Cc1ccc(C)c(OCCC(=O)Nc2cc(S(=O)(=O)N3CCCCC3)ccc2C)c1 | 2.4 (≈ 5.57 µM)

Row | SMILES | solubility kinetic [µg/mL]
41 | Cc1onc(-c2ccccc2Cl)c1C(=O)N1CCC(C(N)=O)CC1 | 50.7 (≈ 146 µM)
42 | COc1ccc(NC(=O)Nc2ccc3nonc3c2)cc1 | 5.3 (≈ 18.6 µM)
43 | CCOC(=O)c1ccc2[nH]c3c(c2c1)CCCC3O (centres undefined) | > 38.9
44 | CC(C)C(=O)NS(=O)(=O)c1ccc(NS(C)(=O)=O)cc1 | > 48.1
45 | O=[N+]([O-])c1cccc(-c2nnc(SCc3cccnc3)o2)c1 | > 47.1
46 | Cc1cccc(CN2CCN(c3ccc(Cl)cc3)CC2)c1 | 2 (≈ 6.65 µM)
47 | COCCOc1ccc(C(F)(F)F)cc1NC(=O)CN1C(=O)NC2(CCCc3ccccc32)C1=O (centres undefined) | 16.8 (≈ 34.2 µM)
48 | Cc1c(N)cc(N)cc1C(=O)O | > 24.9
49 | CC(=O)NC(Cc1c[nH]c2ccccc12)C(=O)NCCc1ccccc1 (centres undefined) | > 52.4
50 | COc1ccc(NC(=O)N2CCOCC2)cc1 | > 35.4
51 | CCCCc1ccc(NC(=S)N2CCN(c3ccccn3)CC2)cc1 | 0.8 (≈ 2.26 µM)
52 | Cc1ccc(SCCNC(=O)c2ccccc2F)cc1 | 27.8 (≈ 96.1 µM)
53 | CN(C(=O)CSc1nc2ccccc2c(=O)n1-c1ccc(F)cc1F)C1CCS(=O)(=O)C1 (centres undefined) | > 71.9
54 | Cc1c(Cc2ccccc2)sc(NC(=O)C(C)(C)C)c1C(N)=O | 17.7 (≈ 53.6 µM)
55 | Cc1ccc(C)c(NC(=O)CCN2CCN(C)CC2)c1 | > 41.3
56 | CN(CC(=O)NCCc1ccccc1)Cc1ccco1 | > 40.9
57 | COc1ccc(NC(=O)c2c(F)cccc2Cl)cc1S(=O)(=O)N1CCOCC1 | > 64.3
58 | COCC(C)NC(=O)c1cc2cccc([N+](=O)[O-])c2[nH]1 (centres undefined) | > 41.6
59 | O=C(Nc1ccc2ncccc2c1)c1ccccc1Br | 3.3 (≈ 10.1 µM)
